Measurements reported in BigSolDB 2.1.

Nc1nc(Cl)c2[nH]cnc2n1
Settings | solubility (mole fraction)
in 1,4-dioxane, 288.15 K | 7.48e-05
in 1,4-dioxane, 293.15 K | 9.16e-05
in 1,4-dioxane, 298.15 K | 0.000112
in 1,4-dioxane, 303.15 K | 0.000135
in 1,4-dioxane, 308.15 K | 0.000162
in 1,4-dioxane, 313.15 K | 0.000195
in 1,4-dioxane, 318.15 K | 0.000236
in 1,4-dioxane, 323.15 K | 0.000277
in 1,4-dioxane, 328.15 K | 0.000325
in 1,4-dioxane, 333.15 K | 0.000396
in 2-butanone, 278.15 K | 0.000178
in 2-butanone, 283.15 K | 0.000214
in 2-butanone, 288.15 K | 0.000256
in 2-butanone, 293.15 K | 0.000303
in 2-butanone, 298.15 K | 0.000352
in 2-butanone, 303.15 K | 0.000408
in 2-butanone, 308.15 K | 0.000476
in 2-butanone, 313.15 K | 0.000547
in 2-butanone, 318.15 K | 0.000626
in 2-butanone, 323.15 K | 0.000723
in 2-butanone, 328.15 K | 0.00084
in 2-butanone, 333.15 K | 0.001
in DMF, 278.15 K | 0.00226
in DMF, 283.15 K | 0.00266
in DMF, 288.15 K | 0.00313
in DMF, 293.15 K | 0.00366
in DMF, 298.15 K | 0.00427
in DMF, 303.15 K | 0.00497
in DMF, 308.15 K | 0.00577
in DMF, 313.15 K | 0.00668
in DMF, 318.15 K | 0.00771
in DMF, 323.15 K | 0.00888
in DMF, 328.15 K | 0.01
in DMF, 333.15 K | 0.0121
in DMSO, 298.15 K | 0.0108
in DMSO, 303.15 K | 0.0127
in DMSO, 308.15 K | 0.015
in DMSO, 313.15 K | 0.0172
in DMSO, 318.15 K | 0.0204
in DMSO, 323.15 K | 0.024
in DMSO, 328.15 K | 0.0284
in DMSO, 333.15 K | 0.0331
in ethanol, 278.15 K | 4.39e-05
in ethanol, 283.15 K | 5.42e-05
in ethanol, 288.15 K | 6.87e-05
in ethanol, 293.15 K | 8.56e-05
in ethanol, 298.15 K | 0.000105
in ethanol, 303.15 K | 0.000125
in ethanol, 308.15 K | 0.000153
in ethanol, 313.15 K | 0.000184
in ethanol, 318.15 K | 0.000218
in ethanol, 323.15 K | 0.000258
in ethanol, 328.15 K | 0.000303
in ethanol, 333.15 K | 0.000357
in ethylene glycol, 278.15 K | 0.000549
in ethylene glycol, 283.15 K | 0.000634
in ethylene glycol, 288.15 K | 0.000719
in ethylene glycol, 293.15 K | 0.000823
in ethylene glycol, 298.15 K | 0.000923
in ethylene glycol, 303.15 K | 0.00104
in ethylene glycol, 308.15 K | 0.00117
in ethylene glycol, 313.15 K | 0.0013
in ethylene glycol, 318.15 K | 0.00145
in ethylene glycol, 323.15 K | 0.0016
in ethylene glycol, 328.15 K | 0.00177
in ethylene glycol, 333.15 K | 0.00198
in isobutanol, 278.15 K | 8.8e-05
in isobutanol, 283.15 K | 0.000106
in isobutanol, 288.15 K | 0.000131
in isobutanol, 293.15 K | 0.000155
in isobutanol, 298.15 K | 0.00018
in isobutanol, 303.15 K | 0.000211
in isobutanol, 308.15 K | 0.000244
in isobutanol, 313.15 K | 0.00028
in isobutanol, 318.15 K | 0.000325
in isobutanol, 323.15 K | 0.000373
in isobutanol, 328.15 K | 0.000433
in isobutanol, 333.15 K | 0.000499
in isopropanol, 278.15 K | 5.99e-05
in isopropanol, 283.15 K | 7.43e-05
in isopropanol, 288.15 K | 9.38e-05
in isopropanol, 293.15 K | 0.000114
in isopropanol, 298.15 K | 0.000137
in isopropanol, 303.15 K | 0.000165
in isopropanol, 308.15 K | 0.000195
in isopropanol, 313.15 K | 0.00023
in isopropanol, 318.15 K | 0.000266
in isopropanol, 323.15 K | 0.000314
in isopropanol, 328.15 K | 0.000363
in isopropanol, 333.15 K | 0.000431
in methanol, 278.15 K | 3.09e-05
in methanol, 283.15 K | 3.96e-05
in methanol, 288.15 K | 4.94e-05
in methanol, 293.15 K | 6.14e-05
in methanol, 298.15 K | 7.53e-05
in methanol, 303.15 K | 9.43e-05
in methanol, 308.15 K | 0.000112
in methanol, 313.15 K | 0.000137
in methanol, 318.15 K | 0.000168
in methanol, 323.15 K | 0.000198
in methanol, 328.15 K | 0.000233
in methanol, 333.15 K | 0.000279
in n-butanol, 278.15 K | 0.000135
in n-butanol, 283.15 K | 0.000159
in n-butanol, 288.15 K | 0.000185
in n-butanol, 293.15 K | 0.00021
in n-butanol, 298.15 K | 0.000242
in n-butanol, 303.15 K | 0.000276
in n-butanol, 308.15 K | 0.000316
in n-butanol, 313.15 K | 0.000358
in n-butanol, 318.15 K | 0.000409
in n-butanol, 323.15 K | 0.000461
in n-butanol, 328.15 K | 0.000515
in n-butanol, 333.15 K | 0.000586
in n-propanol, 278.15 K | 0.000103
in n-propanol, 283.15 K | 0.000122
in n-propanol, 288.15 K | 0.000149
in n-propanol, 293.15 K | 0.000174
in n-propanol, 298.15 K | 0.000202
in n-propanol, 303.15 K | 0.000234
in n-propanol, 308.15 K | 0.000274
in n-propanol, 313.15 K | 0.000314
in n-propanol, 318.15 K | 0.000362
in n-propanol, 323.15 K | 0.00042
in n-propanol, 328.15 K | 0.000472
in n-propanol, 333.15 K | 0.000539
in water, 278.15 K | 3.28e-06
in water, 283.15 K | 4.66e-06
in water, 288.15 K | 6.53e-06
in water, 293.15 K | 9.04e-06
in water, 298.15 K | 1.24e-05
in water, 303.15 K | 1.68e-05
in water, 308.15 K | 2.26e-05
in water, 313.15 K | 3e-05
in water, 318.15 K | 3.96e-05
in water, 323.15 K | 5.17e-05
in water, 328.15 K | 6.7e-05
in water, 333.15 K | 8.62e-05
